Assay results published in patent US20030181377A1, “Inhibition of VEGF receptor signaling reverses tumor resistance to radiotherapy” (Vanderbilt University, priority 2002, published 2003).

B1: ExFlk.6His: soluble extracellular component of Flk-1 tagged with 6 histidine residues (protein, UniProt P35918 20-762, looked up)
extracellular domain: ASVGLPGDFLHPPKLSTQKDILTILANTTLQITCRGQRDLDWLWPNAQRDSEERVLVTECGGGDSIFCKTLTIPRVVGNDTGAYKCSYRDVDIASTVYVYVRDYRSPFIASVSDQHGIVYITENKNKTVVIPCRGSISNLNVSLCARYPEKRFVPDGNRISWDSEIGFTLPSYMISYAGMVFCEAKINDETYQSIMYIVVVVGYRIYDVILSPPHEIELSAGEKLVLNCTARTELNVGLDFTWHSPPSKSHHKKIVNRDVKPFPGTVAKMFLSTLTIESVTKSDQGEYTCVASSGRMIKRNRTFVRVHTKPFIAFGSGMKSLVEATVGSQVRIPVKYLSYPAPDIKWYRNGRPIESNYTMIVGDELTIMEVTERDAGNYTVILTNPISMEKQSHMVSLVVNVPPQIGEKALISPMDSYQYGTMQTLTCTVYANPPLHHIQWYWQLEEACSYRPGQTSPYACKEWRHVEDFQGGNKIEVTKNQYALIEGKNKTVSTLVIQAANVSALYKCEAINKAGRGERVISFHVIRGPEITVQPAAQPTEQESVSLLCTADRNTFENLTWYKLGSQATSVHMGESLTPVCKNLDALWKLNGTMFSNSTNDILIVAFQNASLQDQGDYVCSAQDKKTKKRHCLVKQLIILERMAPMITGNLENQTTTIGETIEVTCPASGNPTPHITWFKDNETLVEDSGIVLRDGNRNLTIRRVRKEDGGLYTCQACNVLGCARAETLFIIEGAQEKTNLE
modifications: extracellular domain His6 tag

Assays:
HUVEC [1] = experiment: Radiation-induced apoptosis in endothelial cells (HUVEC); format: cell-based, human
Protocol: FIG. 5 is a bar graph depicting an increased percentage of endothelial cells undergoing apoptosis in response to VEGF-R2 inhibition followed by radiotherapy. […] Cells were treated. with 6 Gy of radiation and stained 24 hours later. The percentage of cells undergoing apoptosis was determined for each of the treatment groups as described in Example 6. The mean percentage of apoptotic cells and the standard error of the mean were determined using 4 culture plates in each treatment group.
To determine whether Flk-1 inhibitors enhance radiation-induced intrinsic cell death mechanisms, radiation-induced apoptosis in HUVEC human primary culture endothelial cells, 3B11 murine endothelial cells, and human microdermal endothelial cells (HMEC) was studied following Flk-1 inhibition. […] Cells were then treated with 6 Gy of ionizing radiation. Cultures were stained to reveal apoptotic cells 24 hours later. Endothelial cell death was quantified by counting the number of apoptotic bodies in 100 cells.

[2] = in vivo; cited from earlier work
EPCs in GI261 gliomas = experiment: Endothelial progenitor cell (EPC) infiltration of irradiated tumor; format: in vivo, mice; details: SU5416 and radiation; tumor sections on days 1, 4 and 7
Protocol: EPCs were isolated from peripheral circulation, fixed with paraformaldehyde, and incubated with antibodies that specifically bind to Flk or to CD31. A fluorescently-labeled secondary antibody was used to detect Flk and CD31 (PECAM; platelet-endothelial cell adhesion molecule 1) proteins on the surface of EPCs.
Mice bearing GI261 gliomas, generated as described in Example 1, received radiation […] treatment of the tumor. EPCs were isolated from peripheral circulation and fluorescently labeled with Dil (1,1′-dioctadecyl-3,3,3′,3′-tetramethylindocarbocyanine perchlorate; available from Molecular Probes, Inc., Eugene, Oreg., United States of America). Labeled EPCs were then administered via tail vein injection to tumor-bearing mice immediately following tumor irradiation. Tumor sections were obtained on days 1, 4, and 7 following irradiation. In control mice, EPCs were detected in the perivascular space at day 4, and then proliferated and migrated into to the tumor by day 7.

GL261 tumors = experiment: Tumor volume assessment / growth delay; format: in vivo, C57BL6 mice
Protocol: GL261 tumors were generated by subcutaneous injection of 10^6 viable GL261 cells suspended in 0.2 ml of a 0.6% agarose solution into the right thigh of C57BL6 mice. […] An equal number of large and intermediate size tumors were present in each group. […] Control mice received identical doses and schedule of either SU5416 alone or radiation alone. Twice each week, tumor volumes were measured using skin calipers as previously described by […] et al., 1998; […] et al., 1995; and Staba et al., 1998. Tumor volumes were calculated using a formula: a×b×c/2, where a=maximal width dimension, b=maximal length dimension, and c=maximal depth dimension, which was derived from the formula for an ellipsoid (πd^3/6). Data were calculated as the percent of original (day 0) tumor volume and graphed as fractional tumor volume ±1 standard deviation for each treatment group. Variance was analyzed by the Kruskal-Wallis method (Kruskal & Wallis, 1952). Growth delay was determined as the number of days required for a tumor to reach a predetermined volume, for example three-fold the original volume, or a volume of 1 cm^3. […] In a second experiment, mice were randomly assigned to each of the four treatment groups for a total of 10 mice in each group. […] Flk-1 inhibition and radiation treatments were initiated fourteen days after the tumor cells had been injected and were performed as described herein above.

[3] = tested on: GL261 and B16F0 tumor blood vessels; experiment: Tumor vascular window model (vascular length density); format: in vivo, C57BL6 mice
Protocol: Penicillin/streptomycin solution (200 μl; available from GIBCO™ Invitrogen Corporation, Carlsbad, Calif., United States of America) was injected into the hind limb of the mouse prior to preparation of the window chamber. The dorsal ventral window chamber was prepared using a 3-gram plastic frame, which was applied to the skin of a test animal and remained attached for the duration of the study. Briefly, the chamber was screwed together, and the epidermis was cut and left open with a plastic covering.
To prepare a test animal for application of the plastic frame, the dorsal midline was found along the animal's back, and a clip was placed to hold the skin in position. […]
GL261 and B16F0 cells were implanted into the dorsal skin fold window chamber. […] Scanned slides were analyzed using OPTIMAS® image analysis software (Bioscan, Inc., Edmonds, Wash., United States of America; available from Media Cybernetics, Silver Spring, Md., United States of America) or IMAGE-PRO® software (Media Cybernetics, Silver Spring, Md., United States of America) as described below.
Vascular center lines were positioned by OPTIMAS® software or IMAGE-PRO® software and verified by an observer blinded to the treatment groups. Tumor blood vessels were quantified using OPTIMAS® software, which quantified the vascular length density of blood vessel within the microscopic field. […]

[4] = tested on: tumor blood flow (B16F0, LLC, GL261, D54 tumors); experiment: Restoration of tumor blood flow after radiotherapy (Doppler); format: in vivo, mice; details: SU5416 in combination with radiation, measured daily for 7 days; radiation-only controls restored flow by day 7
Source text: FIG. 7 is a bar graph depicting inhibition of tumor revascularization via administration of a VEGF-R2 inhibitor. Doppler analysis of blood flow in four tumor types is shown on 3, 5, and 7 days following radiation treatment. Animals received radiation treatment alone (control) or in combination with SU5416. In control animals, tumor revascularization occurs within 7 days following radiation treatment. Tumor revascularization is repressed in animals receiving SU5416 in combination with radiation treatment. Open bars, B16F0 tumors; solid bars, LLC tumors; stippled bars, GL261 tumors; hatched bars, D54 tumors.
Tumor-bearing mice were generated as described in Example 1. […] Control animals were treated with radiation alone. Doppler analysis of tumor blood flow was measured daily for 7 days using the methods described in Example 3. In control animals receiving only radiation treatment, restoration of tumor blood flow was observed by day 7.

[5] = tested on: GL261 and B16F0 tumor blood flow; experiment: Power Doppler sonography of tumor blood flow; format: in vivo, C57BL6 mice
Source text: Power Doppler sonography was used to study the response of tumor blood vessels to ionizing radiation. This method utilizes amplitude to measure flow in microvasculature. Tumors were imaged with a 10-5 MHz ENTOS® linear probe (Advanced Technology Laboratories, Inc., Bothell, Wash., United States of America) attached to an HDI® 5000 diagnostic ultrasound system (Advanced Technology Laboratories, Inc., Bothell, Wash., United States of America).
Power Doppler sonography images were obtained with the power gain set to 82%. Care was taken to minimize motion artifact. A 20-frame cineloop sweep of the entire tumor was obtained with the probe perpendicular to the long axis of the lower extremity along the entire length of the tumor.
The images were analyzed using HDI® software (Advanced Technology Laboratories, Inc., Bothell, Wash., United States of America). This software allows direct evaluation of Power Doppler cineloop raw data. Color area was recorded for the entire tumor. […]
To determine whether inhibition of Flk-1-mediated signal transduction also enhances the cytotoxic effects of radiotherapy in established tumors, Power Doppler sonography was used to quantify blood flow in 1 cm diameter tumors treated with Flk-1 inhibitors and ionizing radiation. […] Blood flow was quantified by Power Doppler sonography on days 4 and 7 according to methods described in Example 3.

Flk-1 = details: Lin et al., 1998; cited from earlier work
HUVEC [6] = details: Lin et al., 1998; cited from earlier work

Molecule	percentage of apoptotic cells, with radiation (HUVEC [1]; 50 μM SU5416 or 10^8 pfu Ad.ExFlk plus 6 Gy, stained 24 hours later)	percentage of cells undergoing apoptosis, no radiation (HUVEC [1]; 50 μM SU5416 or 10^8 pfu Ad.ExFlk, not exposed to ionizing radiation)	plasma half-life [2]	extravasation of EPCs into the tumor (EPCs in GI261 gliomas)	tumor growth delay, SU5416 alone (GL261 tumors; 0.75 mg intraperitoneal on days 0, 4, 7 and 11, first experiment)	tumor volume, SU5416 followed by radiation (GL261 tumors; first experiment (FIG. 6A), 0.75 mg i.p. ×4 plus 3 Gy ×8, p=0.01 vs radiation alone, p<0.009 vs SU5416 alone)	tumor volume, SU5416 and radiation (GL261 tumors; second experiment (FIG. 6B), 10 mice per group, p=0.01 vs radiation alone, p=0.006 vs SU5416 alone)	time to complete destruction of tumor blood vessels ([3]; 0.75 mg administered 1 hour prior to 2 Gy, p=0.02 vs radiation alone)	regression of tumor blood vessels, SU5416 alone ([3]; 0.75 mg, absence of ionizing radiation)	tumor blood flow after radiation treatment [4]	reduction in tumor blood flow, SU5416 plus radiation ([5]; 0.75 mg intraperitoneal 1 hour prior to irradiation, 3 Gy per day for 7 days, p=0.004 vs either treatment alone)	reduction in tumor blood flow, SU5416 alone ([5]; 0.75 mg intraperitoneal, 3 doses, no radiation, 1 cm GL261 and B16F0 tumors, days 4 and 7)	activation of Flk-1 (Flk-1)	VEGF-induced DNA synthesis and migration in HUVEC (HUVEC [6])
Cc1cc(C)c(/C=C2\C(=O)Nc3ccccc32)[nH]1 [SU5416]	14%	4%	1 to 2 h	extravasation of EPCs into the tumor was prevented	No growth delay	significantly reduced tumor volumes	significantly reduced tumor volumes	≤ 24 h	minimal regression of the tumor blood vessels and rapid restoration of vasculature	tumor blood flow was repressed	significant reduction in tumor blood flow	minimal reduction		
B1													blocks activation of Flk-1	inhibits
